# In patent US8609653B2, “Azaindole compounds and methods for treating HIV” (priority 2011, dated 2013):
# Counter-ions that a name gives are not always drawn.
# Test system: HIV
# Test: MT4 assay: antiviral HIV activity in MT-4 cells
# Type: cell-based
# Details: Human immunodeficiency virus 1, MT4, 96 h, read-out: HIV MT4 Assay IC50 (μM), HTLV-1 transformed cell line MT-4; read-out 96 hours later with cell titer glo; 10 point dose response
# Procedure: Antiviral HIV activity and cytotoxicity values for compounds of the invention from Table 1 were measured in parallel in the HTLV-1 transformed cell line MT-4 based on the method previously described (Hazen et al., 2007, In vitro antiviral activity of the novel, tyrosyl-based human immunodeficiency virus (HIV) type 1 protease inhibitor brecanavir (GW640385) in combination with other antiretrovirals and against a panel of protease inhibitor-resistant HIV (Hazen et al., “In vitro antiviral activity of the novel, tyrosyl-based human immunodeficiency virus (HIV) type 1 protease inhibitor brecanavir (GW640385) in combination with other antiretrovirals and against a panel of protease inhibitor-resistant HIV”, Antimicrob. Agents Chemother. 2007, 51: 3147-3154; and Pauwels et al., “Sensitive and rapid assay on MT-4 cells for the detection of antiviral compounds against the AIDS virus”, J. of Virological Methods 1987, 16: 171-185).
# Luciferase activity was measured 96 hours later by adding a cell titer glo (Promega, Madison, Wis.). Percent inhibition of cell protection data was plotted relative to no compound control. Under the same condition, cytotoxicity of the compounds was determined using cell titer Glo™ (Promega, Madison, Wis.). IC50s were determined from a 10 point dose response curve using 3-4-fold serial dilution for each compound, which spans a concentration range>1000 fold.
# These values are plotted against the molar compound concentrations using the standard four parameter logistic equation: y=((Vmax*x^n)/(K^n+x^n))+Y2
# Y2=minimum y n=slope factor
# Vmax=maximum y x=compound concentration [M]
row,Compound,IC50
1,"Cc1nc2c(ccn2Cc2ccc(F)c(F)c2)c(-c2ccc3c(c2C)CCCO3)c1[C@H](OC(C)(C)C)C(=O)O (atropisomer, axis not shown; (M)) [Example 87, (2S)(M)-2-(tert-Butoxy)-2-(1-(3,4-difluorobenzyl)-6-methyl-4-(5-methylchroman-6-yl)-1H-pyrrolo[2,3-b]pyridin-5-yl)acetic acid]",0.005 µM
2,"Cc1nc2c(ccn2Cc2ccc(F)c(F)c2)c(-c2cc(Cl)c3c(c2C)CCCO3)c1[C@H](OC(C)(C)C)C(=O)O (atropisomer, axis not shown; (M)) [Example 95, (2S)(M)-2-(tert-butoxy)-2-(4-(8-chloro-5-methylchroman-6-yl)-1-(3,4-difluorobenzyl)-6-methyl-1H-pyrrolo[2,3-b]pyridin-5-yl)acetic acid]",0.04 µM
3,"Cc1nc2c(ccn2Cc2ccc(F)c(F)c2)c(-c2cc(F)c3c(c2C)CCCO3)c1[C@H](OC(C)(C)C)C(=O)O (atropisomer, axis not shown; (M)) [Example 96, (2S)(M)-2-(tert-butoxy)-2-(1-(3,4-difluorobenzyl)-4-(8-fluoro-5-methylchroman-6-yl)-6-methyl-1H-pyrrolo[2,3-b]pyridin-5-yl)acetic acid]",0.006 µM
4,"Cc1nc2c(ccn2Cc2ccc(F)c(F)c2)c(-c2ccc3c(c2C)NCCO3)c1[C@H](OC(C)(C)C)C(=O)O (atropisomer, axis not shown; (M)) [Example 97, (2S)(M)-2-(tert-butoxy)-2-(1-(3,4-difluorobenzyl)-6-methyl-4-(5-methyl-3,4-dihydro-2H-benzo[b][1,4]oxazin-6-yl)-1H-pyrrolo[2,3-b]pyridin-5-yl)acetic acid, trifluoroacetic acid salt]",0.012 µM
5,"Cc1nc2c(ccn2Cc2cccc(F)c2F)c(-c2cc(Cl)c3c(c2C)CCCO3)c1[C@H](OC(C)(C)C)C(=O)O (atropisomer, axis not shown; (M)) [Example 98, (2S(M))-2-(tert-butoxy)-2-(4-(8-chloro-5-methylchroman-6-yl)-1-(2,3-difluorobenzyl)-6-methyl-1H-pyrrolo[2,3-b]pyridin-5-yl)acetic acid]",0.181 µM
6,"Cc1nc2c(ccn2Cc2cccc(F)c2F)c(-c2ccc3c(c2C)CCCO3)c1[C@H](OC(C)(C)C)C(=O)O (atropisomer, axis not shown; (M)) [Example 99, (2S)(M)-2-(tert-butoxy)-2-(1-(2,3-difluorobenzyl)-6-methyl-4-(5-methylchroman-6-yl)-1H-pyrrolo[2,3-b]pyridin-5-yl)acetic acid]",0.008 µM
7,"Cc1ccc(-c2c([C@H](OC(C)(C)C)C(=O)O)c(C)nc3c2ccn3Cc2ccc(F)c(F)c2)c(C)c1 (atropisomer, axis not shown; (M)) [Example 101, (2S)(M)-2-(tert-butoxy)-2-(1-(3,4-difluorobenzyl)-4-(2,4-dimethylphenyl)-6-methyl-1H-pyrrolo[2,3-b]pyridin-5-yl)acetic acid]",0.09 µM
8,"Cc1nc2c(ccn2Cc2cccc(F)c2F)c(-c2ccc3c(c2C)NCCO3)c1[C@H](OC(C)(C)C)C(=O)O (atropisomer, axis not shown; (M)) [Example 104, (S)-2-(tert-Butoxy)-2-((M)-1-(2,3-difluorobenzyl)-6-methyl-4-(5-methyl-3,4-dihydro-2H-benzo[b][1,4]oxazin-6-yl)-1H-pyrrolo[2,3-b]pyridin-5-yl)acetic acid]",0.013 µM
9,"Cc1nc2c(c(-c3ccc4c(c3C)CCCO4)c1[C@H](OC(C)(C)C)C(=O)O)CCN2 (atropisomer, axis not shown; (M)) [Example 108, (2S)(M)-2-(tert-Butoxy)-2-(6-methyl-4-(5-methylchroman-6-yl)-2,3-dihydro-1H-pyrrolo[2,3-b]pyridin-5-yl)acetic acid]",0.44 µM
10,"Cc1nc2c(ccn2Cc2ccc(F)c(F)c2)c(-c2cc3c(cc2F)OCCC3)c1[C@H](OC(C)(C)C)C(=O)O (atropisomer, axis not shown; (M)) [Example 109, (2S)(M)-2-(tert-butoxy)-2-(1-(3,4-difluorobenzyl)-4-(7-fluorochroman-6-yl)-6-methyl-1H-pyrrolo[2,3-b]pyridin-5-yl)acetic acid]",0.015 µM
11,"COc1ccc(-c2c([C@H](OC(C)(C)C)C(=O)O)c(C)nc3c2ccn3Cc2ccc(F)c(F)c2)c(C)c1 (atropisomer, axis not shown; (M)) [Example 111, (2S)(M)-2-(tert-Butoxy)-2-(1-(3,4-difluorobenzyl)-4-(4-methoxy-2-methylphenyl)-6-methyl-1H-pyrrolo[2,3-b]pyridin-5-yl)acetic acid]",0.037 µM
12,"Cc1nc2c(ccn2Cc2ccc(F)c(F)c2)c(-c2ccc3c(c2Cl)NCCO3)c1[C@H](OC(C)(C)C)C(=O)O (atropisomer, axis not shown; (M)) [Example 113, (2S)(2M)-2-(tert-Butoxy)-2-(4-(5-chloro-3,4-dihydro-2H-benzo[b][1,4]oxazin-6-yl)-1-(3,4-difluorobenzyl)-6-methyl-M-pyrrolo[2,3-b]pyridin-5-yl)acetic acid, Trifluoroacetic acid salt]",0.009 µM
13,"Cc1nc2c(ccn2Cc2ccc(F)c(F)c2)c(-c2ccc3c(c2Cl)N(C)CCO3)c1[C@H](OC(C)(C)C)C(=O)O (atropisomer, axis not shown; (M)) [Example 116, (2S)(M)-2-(tert-Butoxy)-2-(4-(5-chloro-4-methyl-3,4-dihydro-2H-benzo[b][1,4]oxazin-6-yl)-1-(3,4-difluorobenzyl)-6-methyl-1H-pyrrolo[2,3-b]pyridin-5-yl)acetic acid, Trifluoroacetic acid salt]",0.022 µM
14,"Cc1nc2c(c(-c3ccc4c(c3C)NCCO4)c1[C@H](OC(C)(C)C)C(=O)O)CCN2Cc1cccc(F)c1F (atropisomer, axis not shown; (M)) [Example 118, (2S)(M)-2-(tert-butoxy)-2-(1-(2,3-difluorobenzyl)-6-methyl-4-(5-methyl-3,4-dihydro-2H-benzo[b][1,4]oxazin-6-yl)-2,3-dihydro-1H-pyrrolo[2,3-b]pyridin-5-yl)acetic acid, trifluoroacetic acid salt]",0.14 µM
15,"Cc1nc2c(c(-c3ccc4c(c3C)CCCO4)c1[C@H](OC(C)(C)C)C(=O)O)CCN2Cc1cccc(F)c1F (atropisomer, axis not shown; (M)) [Example 119]",0.009 µM
16,"Cc1cc(F)ccc1Cn1ccc2c(-c3ccc4c(c3C)NCCO4)c([C@H](OC(C)(C)C)C(=O)O)c(C)nc21 (atropisomer, axis not shown; (M)) [Example 122, (2S)(M)-2-(tert-butoxy)-2-(1-(4-fluoro-2-methylbenzyl)-6-methyl-4-(5-methyl-3,4-dihydro-2H-benzo[b][1,4]oxazin-6-yl)-1H-pyrrolo[2,3-b]pyridin-5-yl)acetic acid]",0.014 µM
17,"Cc1nc2c(ccn2Cc2ccc(F)c(F)c2)c(-c2ccc3c4c(ccnc24)CCO3)c1[C@H](OC(C)(C)C)C(=O)O (atropisomer, axis not shown; (M)) [Example 124, (S)-2-(tert-butoxy)-2-(1-(3,4-difluorobenzyl)-4-((M)-2,3-dihydropyrano[4,3,2-de]quinolin-7-yl)-6-methyl-1H-pyrrolo[2,3-b]pyridin-5-yl)acetic acid]",0.035 µM
